The nature of the data set: solvent given as SMILES.

Each structure is given as a SMILES string. Values joined by “and” are separate entries in the source; they are usually repeats but may differ in a detail not shown here. Equal values may be shown once.

Results on 45 molecules are retold here after the Deep4Chem optical property database.

`COC(=O)C(NC(=O)OC(C)(C)C)c1ccc2oc(-c3cc(OC)ccc3OC)nc2c1` (stereo not drawn) showed an absorption maximum (in CC1CCCCC1) of 332 nm, an absorption maximum (in CC#N) of 333 nm and an absorption maximum (in CO) of 337 nm.
Take `Cc1ccc(C2=Cc3c4ccccc4c4ccccc4[n+]3[B-](F)(F)O2)cc1`: for the setting “in ClC(Cl)Cl”, the absorption maximum worked out at 437 nm.
In the case of `Brc1ccc(N2c3c(sc4ccccc34)Sc3sc4ccccc4c32)cc1`, the absorption maximum (in ClCCl) is on record as 309 nm.
Under “in ClC(Cl)Cl”, `CC(=O)OCCN1C(=O)c2cccc3c(Oc4ccc(C=O)cc4)ccc(c23)C1=O` yielded an absorption maximum of 353 nm.
As to `COc1ccc(-c2nc(/C(C#N)=C/c3ccc(C#N)cc3)sc2-c2ccc(OC)cc2)cc1`, the absorption maximum (in CC#N) was determined as 407 nm.
For `F[B-]1(F)Oc2ccccc2-c2c3c(c4c([n+]21)CCc1ccccc1-4)CCc1ccccc1-3`, the absorption maximum (in ClCCl) is 347 nm.
Molecule `N#Cc1cccc(-c2pc3ccccc3s2)c1` (stereo not drawn) gave an absorption maximum (in CC#N) of 324 nm.
Consider `C(=C\c1c2ccccc2cc2ccccc12)/c1cccc2ccccc12`, for which the absorption maximum by setting is: (in CC1CCCCC1) 386 nm; (in CC#N) 386 nm.
Regarding `O=C1c2cc(F)ccc2-c2cnccc21`, the absorption maximum runs as follows: (in CC#N) 408.61 nm; (in CCCCCC) 408.61 nm.
On to `O=C(c1ccc(C(=O)c2ccc(N3c4ccccc4Oc4ccccc43)cc2)cc1)c1ccc(N2c3ccccc3Oc3ccccc32)cc1`, for which the absorption maximum (in Cc1ccccc1) stood at 425 nm.
For the molecule `CCCCCCn1c(=O)c2c3[nH]c4ccccc4oc3c3c(=O)n(CCCCCC)c(=O)c3c2c1=O`, the absorption maximum (in ClCCl) is 454 nm.
As for `COCCOCCOCCOc1cc(C=O)c(OCCOCCOCCOC)cc1C=O`, the absorption maximum reads like this: (in CC(C)(C)O) 393 nm; (in CC(C)CO) 390 nm; (in CC(C)O) 391 nm; (in CCCCO) 378 nm; (in CCCO) 367 nm; (in CCO) 364 nm. Besides, the absorption maximum by setting is: (in CN(C)C=O) 393 nm; (in CNC=O) 350 nm; (in CO) 354 nm; (in NC=O) 354 nm; (in O) 394 nm.
Consider `CN(C)c1ccc2nc3c(cc2c1)c(-c1ccccc1)nn3-c1ccccc1`, for which the absorption maximum is on record as 439.56 nm (in C1CCCCC1); 450.05 nm (in C1CCOC1); 449.24 nm (in CC#N); 450.45 nm (in CC(C)=O); 448.43 nm (in CCCCCl); 444.64 nm (in CCCCOCCCC). This molecule also displayed an absorption maximum (in CN(C)C=O) of 452.69 nm.
Consider `CCOC(=O)c1c(-c2cc3ccc(OC)cc3oc2=O)nn(-c2ccccc2)c1C(=O)OCC`, for which the absorption maximum (in ClCCl) stood at 337 nm.
As for `FC(F)(F)C(F)(F)C(F)(F)C1=NC2=C(Sc3ccccc3)C=C3c4cc(Sc5ccccc5)c5nc(C(F)(F)C(F)(F)C(F)(F)F)nc6c(Sc7ccccc7)cc(c4c56)=C4C=C(Sc5ccccc5)C(=N1)C2C34` (stereo not drawn), the absorption maximum (in C1CCOC1) was 565 nm.
Where the note is “in CC#N”, `COC(=O)c1c(NC(C)(C)C)oc(-c2ccc(-c3ccccc3)cc2)c1C(=O)OC` yielded an absorption maximum of 355 nm.
As for `CCN(CC)c1ccc(-c2nc3c(nc2-c2ccc(B(c4c(C)cc(C)cc4C)c4c(C)cc(C)cc4C)cc2)c2ccccc2n3C)cc1`, the absorption maximum (in C1CCOC1) is 405 nm.
Regarding `CCN(CC)c1ccc(/C=C2\CC/C(=C\c3ccc(N(c4ccccc4)c4ccccc4)cc3)C2=C(C#N)C#N)cc1`, the absorption maximum (in CN(C)C=O) is 579 nm.
Where the note is “in C1CCOC1”, `Cc1cc(C)c([B-]2(c3c(C)cc(C)cc3C)[O+]=P(c3ccccc3)(c3ccccc3)c3cc(-c4ccc(N(C)C)cc4)sc3-c3sc(-c4ccc(N(C)C)cc4)cc32)c(C)c1` came in with an absorption maximum of 445 nm.
On to `Nc1cc2ccc3cccc4ccc(c1)c2c34`, for which the absorption maximum by setting is: (in CC#N) 338 nm; (in CCCCOCCCC) 338 nm; (in CO) 336 nm.
On to `CCCCCCC(CCCCCC)N1C(=O)c2cccc3c(-c4ccc(C#N)cc4)ccc(c23)C1=O`, for which the absorption maximum runs as follows: (in CCCCCC) 355.6 nm; (in CCCCCCCCCCCCCC) 356.2 nm; (in CCCCCCCCCCCO) 365.8 nm; (in CCCCO) 367.8 nm; (in CN(C)C=O) 367.8 nm; (in Cc1ccccc1) 364.6 nm. For the same molecule, the absorption maximum (in ClC(Cl)Cl) was found to be 366.4 nm.
In the case of `Cc1ccc(C)n1-c1ccc(N(C)C)cc1`, the absorption maximum stood at 306 nm (in CC#N) and 304 nm (in CCCCCC).
`CC1=CC(C)=[N+]2C1=C(c1ccc(I)cc1)c1c(C)cc(C)n1[B-]2(OCc1ccccc1)OCc1ccccc1` came in with an absorption maximum (in ClC(Cl)Cl) of 506 nm.
As for `CCOC(=O)c1ccc(/C=C/C2=[N+]3C(=C(c4ccccc4)c4ccc(/C=C/c5ccc(C(=O)OCC)o5)n4[B-]3(F)F)C=C2)o1`, the absorption maximum (in ClC(Cl)Cl) is 671 nm.
For the setting “in CCCCCC”, `Cc1cc(C)n2c1C=C1C(=O)N(C)C(c3ccc([N+](=O)[O-])cc3)=[N+]1[B-]2(F)F` showed an absorption maximum of 498 nm.
As to `CC1(C)c2ccccc2N(c2ccc(-c3n[n+]4c(o3)-c3ccccc3O[B-]4(F)F)cc2)c2ccccc21`, the absorption maximum runs as follows: (in C1COCCO1) 361 nm; (in CC(C)=O) 360 nm; (in CCN(CC)CC) 362 nm; (in CCO) 361 nm; (in CCOC(C)=O) 361 nm; (in CS(C)=O) 362 nm. Also, the absorption maximum by setting is: (in Cc1ccccc1) 364 nm; (in ClC(Cl)Cl) 367 nm; (in ClCCCl) 362 nm; (in ClCCl) 383 nm; (in Clc1ccccc1) 369 nm.
As to `O=C(c1ccncc1)c1ccc(-n2c3ccccc3c3ccccc32)cc1`, the absorption maximum (in C1CCOC1) stood at 353.15 nm, the absorption maximum (in CCCCCC) came to 354.95 nm, the absorption maximum (in Cc1ccccc1) is reported as 359 nm and the absorption maximum (in ClCCl) is 359.23 nm.
The molecule `CC(C)c1cccc(C(C)C)c1-n1c(=O)c2cc3nc(-c4ccccc4)c4cc5c(=O)n(-c6c(C(C)C)cccc6C(C)C)c(=O)c6cc7nc(-c8ccccc8)c8cc(c1=O)c2c1c3c4c(c65)c7c81` gave an absorption maximum (in ClC(Cl)Cl) of 488 nm.
For the molecule `COc1c2ccccc2c(OC)c2c1c1ccccc1n2C`, the absorption maximum (in C1CCCCC1) was 405 nm, the absorption maximum (in CC#N) is recorded as 406 nm, the absorption maximum (in CO) is 405 nm and the absorption maximum (in ClCCl) was 409 nm.
With `CCCCN1C(=O)C2=C(c3ccc(Br)cc3)[N-]C(=O)C2=C1c1ccc(Br)cc1`, the absorption maximum (in ClCCl) amounted to 571 nm.
Consider `C(=C\c1cc(/C=C/c2ccc(N(c3ccccc3)c3ccccc3)cc2)nc(/C=C/c2ccc(N(c3ccccc3)c3ccccc3)cc2)n1)/c1ccc(N(c2ccccc2)c2ccccc2)cc1`, for which, where the note is “in ClCCl”, the absorption maximum is listed as 415 nm.
For `CCOc1ccc2c(-c3nc(-c4ccccc4)no3)cc(=O)oc2c1`, the absorption maximum (in CCO) came to 388 nm and the absorption maximum (in ClC(Cl)Cl) is on record as 392 nm.
`Nc1ccc2[nH]ncc2c1`: the absorption maximum (in C1CCCCC1) turned out to be 326 nm.
Take `CCOC(=O)c1c(-c2cc3ccc(OCC=C(C)C)cc3oc2=O)nn(-c2ccccc2)c1C(=O)OCC`: the absorption maximum (in ClCCl) came to 341 nm.
For the setting “in ClCCl”, `C[Si]1(C)c2ccc(-c3ccc(N(c4ccccc4)c4ccccc4)cc3)cc2C=Cc2cc(-c3ccc(N(c4ccccc4)c4ccccc4)cc3)ccc21` returned an absorption maximum of 390 nm.
`COc1ccc(-c2ccc3c(c2)c2cc(-c4ccc(OC)cc4)ccc2n3-c2ccc(C(=O)c3ccc4sc5ccccc5c4c3)cc2)cc1`: the absorption maximum (in Cc1ccccc1) was 366 nm.
In the case of `COC(=O)c1c(NC(C)(C)C)oc(-c2ccccc2)c1C(=O)OC`, the absorption maximum (in CC#N) is 334 nm.
On to `CSc1nccc(/C=C/c2ccc(N(c3ccccc3)c3ccc(/C=C/c4ccnc(SC)n4)cc3)cc2)n1`, for which, under “in ClCCl”, the absorption maximum was found to be 430 nm.
As for `CCCCOc1c(OC)cc2cc(OC)c(OCCCC)c3c4c(OCCCC)c(OC)cc5cc(OC)c(OCCCC)c(c1c23)c54`, the absorption maximum (in ClCCl) amounted to 451 nm.
Still for that read-out and setting: the result for `O=c1c2cc(C#Cc3ccc(Cl)cc3)ccc2nc2ccc(C#Cc3ccc(Cl)cc3)cn12` reads 382 nm.
Turning to `CCN(CC)c1ccc2cc(/C=C/C3=C4CC/C(=C\c5cc6ccc(N(CC)CC)cc6oc5=O)C4=[O+][B-](F)(F)O3)c(=O)oc2c1`, the absorption maximum is on record as 629 nm (in C1COCCO1); 655 nm (in CC#N); 653 nm (in CC(C)=O); 636 nm (in CCOC(C)=O); 673 nm (in CN(C)C=O); 690 nm (in CS(C)=O). For the same molecule, the absorption maximum by setting is: (in Cc1ccccc1) 629 nm; (in ClC(Cl)Cl) 644 nm; (in ClCCl) 653 nm.
Take `Nc1ccccc1C(=O)O`: the absorption maximum turned out to be 338 nm (in C1CCCCC1); 338 nm (in C1COCCO1); 336 nm (in CC#N); 336 nm (in CC(C)=O); 334 nm (in CCO); 334 nm (in CO). In addition, the absorption maximum is 342 nm (in CS(C)=O); 290 nm and 310 nm (in O); 320 nm (in OCC(F)(F)F); 340 nm (in c1ccccc1).
Consider `COc1cc(OC)c2ccc(=O)oc2c1`, for which the absorption maximum runs as follows: (in CC(C)O) 324 nm; (in CCO) 324 nm; (in CCOCC) 318 nm; (in CO) 324 nm; (in O) 327 nm.
As to `Nc1n[n+]([O-])c2ccccc2[n+]1[O-]`, the absorption maximum is given as 477 nm (in CC#N) and 457 nm (in O).
Consider `CC1=C(C)C(c2c(C)c(C)c3n2[B-](F)(F)[N+]2=C(C)C(C)=C(C)C2=C3)=[N+]2C1=Cc1c(C)c(C)c(C)n1[B-]2(F)F`, for which, where the note is “in ClCCl”, the absorption maximum amounted to 562 nm.
